Measurements from ChEMBL document CHEMBL4673362, “Design, synthesis, and biological evaluation of 2,6,7-substituted pyrrolo[2,3-d]pyrimidines as cyclin dependent kinase inhibitor in pancreatic cancer cells” (Bioorg Med Chem Lett, 2021).
pIC50: −log10 of the molar value. ≈ marks a conversion by molar mass, not a printed value. Each block holds one compound with its values, some of them ahead of it. Calls of active or inactive are those of the source. No cut-off for these calls is given here.

What was measured:
[1] = system: MIA PaCa-2; experiment: Antiproliferative activity against human MIA PaCa-2 cells assessed as inhibition of cell growth by MTT assay; type: functional, cell-based
[2] = biological target: Cyclin-dependent kinase 4/cyclin D1 (Homo sapiens, UniProt P11802); experiment: Inhibition of CDK4/cyclin D1 (unknown origin); type: protein-complex assay
Chain of Cyclin-dependent kinase 4/cyclin D1 (P11802 whole entry): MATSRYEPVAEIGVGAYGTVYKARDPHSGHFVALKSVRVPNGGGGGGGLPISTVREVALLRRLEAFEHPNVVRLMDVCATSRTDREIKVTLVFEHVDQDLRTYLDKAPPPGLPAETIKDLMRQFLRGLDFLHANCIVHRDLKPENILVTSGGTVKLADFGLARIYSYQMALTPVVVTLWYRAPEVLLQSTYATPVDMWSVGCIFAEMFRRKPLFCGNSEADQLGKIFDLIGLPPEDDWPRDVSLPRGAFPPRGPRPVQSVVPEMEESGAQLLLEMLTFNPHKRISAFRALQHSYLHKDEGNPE
Chain of Cyclin-dependent kinase 4/cyclin D1 (P24385 whole entry, further chain): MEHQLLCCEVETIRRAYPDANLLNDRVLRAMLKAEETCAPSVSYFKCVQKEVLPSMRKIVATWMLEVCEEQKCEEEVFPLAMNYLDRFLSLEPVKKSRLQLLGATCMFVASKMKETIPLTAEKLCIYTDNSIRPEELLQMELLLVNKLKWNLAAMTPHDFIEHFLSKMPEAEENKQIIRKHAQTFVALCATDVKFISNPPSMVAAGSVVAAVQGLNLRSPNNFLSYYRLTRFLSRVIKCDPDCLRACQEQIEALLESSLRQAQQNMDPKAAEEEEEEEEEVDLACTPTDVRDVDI

[3] = system: MIA PaCa-2; experiment: Cell cycle arrest in human MIA PaCa-2 cells assessed as accumulation at G1 phase at 1.6 uM (reference value: 44.09 %); type: functional
[4] = system: MIA PaCa-2; experiment: Cell cycle arrest in human MIA PaCa-2 cells assessed as accumulation at S phase at 2.5 uM (reference value: 45.27 %); type: functional
[5] = Permeability of the compound at pH 7.4 by PAMPA; type: ADME; conditions: read-out: permeability
[6] = system: MIA PaCa-2; experiment: Cell cycle arrest in human MIA PaCa-2 cells assessed as accumulation at G2 phase at 1.6 uM (reference value: 10.64 %); type: functional
[7] = Metabolic stability in human liver microsomes assessed as half life; type: ADME, Microsome
[8] = system: MIA PaCa-2; experiment: Cell cycle arrest in human MIA PaCa-2 cells assessed as accumulation at S phase at 0.8 uM (reference value: 45.27 %); type: functional
[9] = Permeability of the compound at pH 5.0 by PAMPA; type: ADME; conditions: read-out: permeability
[10] = system: MIA PaCa-2; experiment: Cell cycle arrest in human MIA PaCa-2 cells assessed as accumulation at G2 phase at 0.8 uM (reference value: 10.64 %); type: functional
[11] = Metabolic stability in rat liver microsomes assessed as half life; type: ADME, Microsome
[12] = system: MIA PaCa-2; experiment: Cell cycle arrest in human MIA PaCa-2 cells assessed as accumulation at G1 phase at 0.8 uM (reference value: 44.09 %); type: functional
[13] = system: MIA PaCa-2; experiment: Cell cycle arrest in human MIA PaCa-2 cells assessed as accumulation at G1 phase at 2.5 uM (reference value: 44.09 %); type: functional
[14] = system: MIA PaCa-2; experiment: Cell cycle arrest in human MIA PaCa-2 cells assessed as accumulation at S phase at 1.6 uM (reference value: 45.27 %); type: functional
[15] = Solubility of the compound at pH 7.4; type: physicochemical; conditions: buffer
[16] = biological target: Cyclin-dependent kinase 9 (Homo sapiens) (UniProt P50750); experiment: Inhibition of CDK9 (unknown origin) at 1 uM relative to control
[17] = system: MIA PaCa-2; experiment: Cell cycle arrest in human MIA PaCa-2 cells assessed as accumulation at G2 phase at 2.5 uM (reference value: 10.64 %); type: functional
[18] = biological target: CDK6/cyclin D1 (Homo sapiens, UniProt Q00534); experiment: Inhibition of CDK6/cyclin D1 (unknown origin); type: protein-complex assay
Chain of CDK6/cyclin D1 (P24385 whole entry): as the sequence (P24385 whole entry, further chain) above
Chain of CDK6/cyclin D1 (Q00534 whole entry): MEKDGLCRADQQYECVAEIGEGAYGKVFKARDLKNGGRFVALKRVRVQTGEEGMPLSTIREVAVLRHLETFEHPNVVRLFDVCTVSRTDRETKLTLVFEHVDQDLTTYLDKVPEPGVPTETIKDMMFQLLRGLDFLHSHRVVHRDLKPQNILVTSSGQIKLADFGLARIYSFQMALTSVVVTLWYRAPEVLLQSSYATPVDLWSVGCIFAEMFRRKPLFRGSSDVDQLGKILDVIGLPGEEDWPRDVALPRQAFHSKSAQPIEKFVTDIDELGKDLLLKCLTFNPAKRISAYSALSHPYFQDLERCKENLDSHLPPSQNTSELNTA

[19] = system: BXPC-3; experiment: Antiproliferative activity against human BxPC-3 cells assessed as inhibition of cell growth by MTT assay; type: functional, cell-based
[20] = biological target: CDK4/Cyclin D3 (Homo sapiens) (UniProt P11802+P30281); experiment: Inhibition of human CDK4/cyclin D3 at 1 uM relative to control; type: protein-complex assay
[21] = system: MIA PaCa-2; experiment: Antiproliferative activity against human MIA PaCa-2 cells assessed as inhibition of cell proliferation at 0.5 uM in presence of 10 to 20 nM PI3K/mTOR inhibitor, BEZ235; type: functional, cell-based
[22] = biological target: Cyclin-dependent kinase 4/cyclin D1 (Homo sapiens) (UniProt P11802+P24385); experiment: Inhibition of human CDK4/cyclin D1 at 1 uM relative to control; type: protein-complex assay
[23] = system: MIA PaCa-2; experiment: Antiproliferative activity against human MIA PaCa-2 cells assessed as inhibition of cell proliferation at 1 uM in presence of PI3K/mTOR inhibitor, BEZ235; type: functional, cell-based
[24] = system: MIA PaCa-2; experiment: Cell cycle arrest in human MIA PaCa-2 cells assessed as accumulation at G1 phase; type: functional, cell-based; conditions: dose 0.8-2.5 µM
[25] = system: MIA PaCa-2; experiment: Potency index, ratio of ribociclib IC50 to test compound IC50 for antiproliferative activity against human MIA PaCa-2 cells by MTT assay; type: functional
[26] = biological target: Dual specificity protein kinase TTK (Homo sapiens) (UniProt P33981); experiment: Inhibition of human TTK at 1 uM relative to control
Chain of Dual specificity protein kinase TTK (Homo sapiens) (P33981 whole entry): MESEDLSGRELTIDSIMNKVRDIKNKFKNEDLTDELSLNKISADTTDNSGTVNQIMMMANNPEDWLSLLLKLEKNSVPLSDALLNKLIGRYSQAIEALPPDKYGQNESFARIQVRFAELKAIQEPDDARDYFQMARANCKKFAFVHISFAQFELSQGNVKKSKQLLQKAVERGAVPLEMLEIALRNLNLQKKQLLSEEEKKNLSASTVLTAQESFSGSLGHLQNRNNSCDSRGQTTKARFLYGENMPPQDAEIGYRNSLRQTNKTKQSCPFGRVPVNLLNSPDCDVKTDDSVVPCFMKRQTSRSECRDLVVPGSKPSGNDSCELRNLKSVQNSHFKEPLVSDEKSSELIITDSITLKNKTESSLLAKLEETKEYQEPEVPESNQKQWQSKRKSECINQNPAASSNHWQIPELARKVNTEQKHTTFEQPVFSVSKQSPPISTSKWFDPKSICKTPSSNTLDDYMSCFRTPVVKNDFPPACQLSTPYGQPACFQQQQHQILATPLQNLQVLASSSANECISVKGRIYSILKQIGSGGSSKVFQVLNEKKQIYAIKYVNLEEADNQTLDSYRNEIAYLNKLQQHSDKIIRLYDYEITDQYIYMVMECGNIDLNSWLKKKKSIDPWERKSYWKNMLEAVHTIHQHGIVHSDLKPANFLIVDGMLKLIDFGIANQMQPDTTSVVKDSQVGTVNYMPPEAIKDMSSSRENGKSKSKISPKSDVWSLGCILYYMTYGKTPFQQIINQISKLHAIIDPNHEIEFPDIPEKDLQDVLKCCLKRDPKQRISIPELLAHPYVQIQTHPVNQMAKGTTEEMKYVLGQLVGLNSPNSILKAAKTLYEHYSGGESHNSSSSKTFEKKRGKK

[27] = biological target: Tyrosine-protein kinase Fer (Homo sapiens) (UniProt P16591); experiment: Inhibition of human FER at 1 uM relative to control
Chain of Tyrosine-protein kinase Fer (Homo sapiens) (P16591 whole entry, looked up): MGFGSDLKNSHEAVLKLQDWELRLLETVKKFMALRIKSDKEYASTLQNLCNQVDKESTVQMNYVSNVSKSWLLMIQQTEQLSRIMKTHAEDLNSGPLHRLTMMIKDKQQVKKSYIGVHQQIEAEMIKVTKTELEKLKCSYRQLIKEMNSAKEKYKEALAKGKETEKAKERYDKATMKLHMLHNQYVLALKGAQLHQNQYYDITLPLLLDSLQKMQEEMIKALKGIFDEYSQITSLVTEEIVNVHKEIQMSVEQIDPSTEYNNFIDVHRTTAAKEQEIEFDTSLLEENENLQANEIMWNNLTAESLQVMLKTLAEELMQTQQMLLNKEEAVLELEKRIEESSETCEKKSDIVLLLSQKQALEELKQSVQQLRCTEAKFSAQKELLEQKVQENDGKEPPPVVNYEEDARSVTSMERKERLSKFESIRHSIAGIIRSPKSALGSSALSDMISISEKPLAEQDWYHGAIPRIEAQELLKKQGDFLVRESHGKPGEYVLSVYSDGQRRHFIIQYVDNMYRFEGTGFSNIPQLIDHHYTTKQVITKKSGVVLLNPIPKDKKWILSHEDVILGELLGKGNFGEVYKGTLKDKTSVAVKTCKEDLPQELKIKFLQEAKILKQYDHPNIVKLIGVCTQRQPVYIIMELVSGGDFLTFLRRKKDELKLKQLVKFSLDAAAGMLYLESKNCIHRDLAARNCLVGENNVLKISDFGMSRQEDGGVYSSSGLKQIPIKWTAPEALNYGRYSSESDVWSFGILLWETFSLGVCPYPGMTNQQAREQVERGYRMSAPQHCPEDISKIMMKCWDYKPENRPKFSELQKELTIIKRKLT

[28] = biological target: CDK6/cyclin D1 (Homo sapiens) (UniProt P24385+Q00534); experiment: Inhibition of human CDK6/cyclin D1 at 1 uM relative to control; type: protein-complex assay
[29] = biological target: Mitogen-activated protein kinase kinase kinase 9 (Homo sapiens) (UniProt P80192); experiment: Inhibition of human MLK1 at 1 uM relative to control
Chain of Mitogen-activated protein kinase kinase kinase 9 (Homo sapiens) (P80192 whole entry, looked up): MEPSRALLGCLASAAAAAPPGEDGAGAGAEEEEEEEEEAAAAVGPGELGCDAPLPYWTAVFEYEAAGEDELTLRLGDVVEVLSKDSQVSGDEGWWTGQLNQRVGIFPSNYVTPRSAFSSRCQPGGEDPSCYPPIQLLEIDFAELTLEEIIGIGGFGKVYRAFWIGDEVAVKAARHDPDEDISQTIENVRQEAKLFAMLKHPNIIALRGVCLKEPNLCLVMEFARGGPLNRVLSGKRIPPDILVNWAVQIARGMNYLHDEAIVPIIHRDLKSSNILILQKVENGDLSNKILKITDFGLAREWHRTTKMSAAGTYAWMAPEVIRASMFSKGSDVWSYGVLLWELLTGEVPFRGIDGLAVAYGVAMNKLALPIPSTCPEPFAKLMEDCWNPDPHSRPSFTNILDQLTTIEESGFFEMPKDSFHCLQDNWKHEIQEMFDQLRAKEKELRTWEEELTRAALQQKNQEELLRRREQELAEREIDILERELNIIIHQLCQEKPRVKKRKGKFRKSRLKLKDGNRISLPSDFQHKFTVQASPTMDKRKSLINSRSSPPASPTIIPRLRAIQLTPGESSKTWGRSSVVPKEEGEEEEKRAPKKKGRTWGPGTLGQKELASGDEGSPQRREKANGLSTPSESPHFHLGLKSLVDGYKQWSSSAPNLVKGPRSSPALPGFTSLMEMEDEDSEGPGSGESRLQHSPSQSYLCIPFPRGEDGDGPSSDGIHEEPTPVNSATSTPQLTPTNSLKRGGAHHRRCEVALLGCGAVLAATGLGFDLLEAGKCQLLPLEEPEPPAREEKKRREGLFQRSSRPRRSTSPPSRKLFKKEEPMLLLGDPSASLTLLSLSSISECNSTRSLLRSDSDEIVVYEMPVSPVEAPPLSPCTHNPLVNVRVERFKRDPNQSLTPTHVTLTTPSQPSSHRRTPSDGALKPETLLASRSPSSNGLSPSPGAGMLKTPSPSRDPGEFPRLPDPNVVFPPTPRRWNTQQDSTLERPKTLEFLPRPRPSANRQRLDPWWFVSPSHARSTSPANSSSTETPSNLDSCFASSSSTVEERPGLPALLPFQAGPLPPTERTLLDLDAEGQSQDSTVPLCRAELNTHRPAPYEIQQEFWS

[30] = biological target: Cyclin-dependent kinase 6 (Homo sapiens) (UniProt Q00534); experiment: Inhibition of CDK6 (unknown origin) at 1 uM
Chain of Cyclin-dependent kinase 6 (Homo sapiens) (Q00534 whole entry): as the sequence (Q00534 whole entry) above

[31] = biological target: Calcium/calmodulin-dependent protein kinase type 1 (Homo sapiens) (UniProt Q14012); experiment: Inhibition of human CAMK1 at 1 uM relative to control
Chain of Calcium/calmodulin-dependent protein kinase type 1 (Homo sapiens) (Q14012 whole entry, looked up): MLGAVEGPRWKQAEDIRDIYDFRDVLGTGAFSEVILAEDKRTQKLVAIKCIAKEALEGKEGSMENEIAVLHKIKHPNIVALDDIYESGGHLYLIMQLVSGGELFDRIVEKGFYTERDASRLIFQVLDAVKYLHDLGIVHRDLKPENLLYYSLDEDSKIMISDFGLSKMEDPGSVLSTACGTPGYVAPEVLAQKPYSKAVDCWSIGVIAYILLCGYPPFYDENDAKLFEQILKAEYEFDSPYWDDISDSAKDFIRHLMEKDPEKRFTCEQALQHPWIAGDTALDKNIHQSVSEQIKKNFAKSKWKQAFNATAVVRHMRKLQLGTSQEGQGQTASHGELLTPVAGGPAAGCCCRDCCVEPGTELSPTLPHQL

[32] = biological target: Cyclin-dependent kinase 4 (Homo sapiens) (UniProt P11802); experiment: Inhibition of CDK4 (unknown origin) at 1 uM
Chain of Cyclin-dependent kinase 4 (Homo sapiens) (P11802 whole entry): as the sequence (P11802 whole entry) above

[33] = biological target: Calcium/calmodulin-dependent protein kinase kinase 1 (Homo sapiens) (UniProt Q8N5S9); experiment: Inhibition of human CAMKKA at 1 uM relative to control
Chain of Calcium/calmodulin-dependent protein kinase kinase 1 (Homo sapiens) (Q8N5S9 whole entry, looked up): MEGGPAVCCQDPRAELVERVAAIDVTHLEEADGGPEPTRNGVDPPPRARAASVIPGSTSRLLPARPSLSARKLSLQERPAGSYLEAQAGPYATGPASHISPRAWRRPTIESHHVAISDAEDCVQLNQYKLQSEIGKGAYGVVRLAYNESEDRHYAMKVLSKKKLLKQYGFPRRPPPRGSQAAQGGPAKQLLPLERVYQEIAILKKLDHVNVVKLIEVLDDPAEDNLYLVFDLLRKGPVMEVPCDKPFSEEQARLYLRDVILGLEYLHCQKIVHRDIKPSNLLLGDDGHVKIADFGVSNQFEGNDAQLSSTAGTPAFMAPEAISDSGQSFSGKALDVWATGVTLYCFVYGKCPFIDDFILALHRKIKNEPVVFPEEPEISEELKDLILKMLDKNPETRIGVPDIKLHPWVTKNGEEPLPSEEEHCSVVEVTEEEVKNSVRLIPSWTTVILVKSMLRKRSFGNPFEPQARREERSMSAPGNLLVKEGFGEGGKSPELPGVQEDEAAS

SMILES: Cc1cc(C)nc(NS(=O)(=O)c2ccc(Nc3ncc4cc(C(=O)N(C)C)n(C5CCCC5)c4n3)cc2)n1
Activity [3]: 43.39%
Activity [4]: 37.29%
Papp [5]: 376 ×10⁻⁶ cm/s
Activity [6]: 17.5%
pIC50 [1]: 5.08
half-life [7]: 25.1 min
Activity [8]: 36.86%
pIC50 [2]: 6.82
Papp [9]: 443 ×10⁻⁶ cm/s
Activity [10]: 18.44%
half-life [11]: > 30 min
Activity [12]: 44.7%
Activity [13]: 35.53%
Activity [14]: 39.11%
solubility [15]: 7.5 µg/mL (≈ 14 µM)
inhibition [16]: 99%
Activity [17]: 27.08%

SMILES: COc1ccc(NC(=O)c2cc3cnc(Nc4ccc(N5CCNCC5)cn4)nc3n2C2CCCC2)cc1
pIC50 [1]: 5.54
pIC50 [2]: 6.92
pIC50 [18]: 6.41
pIC50 [19]: 5.05

SMILES: CCN1CCN(Cc2ccc(Nc3ncc(F)c(-c4cc(F)c5nc(C)n(C(C)C)c5c4)n3)nc2)CC1 [ABEMACICLIB]
pIC50 [1]: 5.24

SMILES: COc1ccccc1NC(=O)c1cc2cnc(Nc3ccc(N4CCNCC4)cn3)nc2n1C1CCCC1
Activity [3]: 65.48%
inhibition [20]: > 80%
Activity [4]: 21.63%
Papp [5]: 464 ×10⁻⁶ cm/s
Activity [21]: Active
Activity [6]: 3.69%
pIC50 [1]: 5.74
half-life [7]: 72.8 min
inhibition [22]: > 80%
Activity [23]: Active
Activity [24]: Dose-dependent effect
Activity [8]: 35.15%
pIC50 [2]: 7.69
Ratio IC50 [25]: 10
pIC50 [18]: 7.28
inhibition [26]: > 80%
Papp [9]: 517 ×10⁻⁶ cm/s
Activity [10]: 4.85%
inhibition [27]: > 80%
half-life [11]: > 30 min
inhibition [28]: > 80%
Activity [12]: 60%
Activity [13]: 74.31%
pIC50 [19]: 5.39
inhibition [29]: > 80%
inhibition [30]: Active
inhibition [31]: > 80%
inhibition [32]: Active
Activity [14]: 30.8%
solubility [15]: 1.1 µg/mL (≈ 2.15 µM)
inhibition [33]: > 80%
Activity [17]: 4.06%

SMILES: O=C(Nc1ccccc1)c1cc2cnc(Nc3ccc(N4CCNCC4)cn3)nc2n1C1CCCC1
pIC50 [1]: 5.55
pIC50 [2]: 7.54
pIC50 [18]: 7.20
pIC50 [19]: 5.29
inhibition [30]: Active
inhibition [32]: Active

SMILES: CN(C)C(=O)c1cc2cnc(NC3CCCCC3)nc2n1C1CCCC1
pIC50 [1]: 4.60
pIC50 [2]: 6.42

SMILES: COc1cccc(NC(=O)c2cc3cnc(Nc4ccc(N5CCNCC5)cn4)nc3n2C2CCCC2)c1
pIC50 [1]: 5.58
pIC50 [2]: 7.27
pIC50 [18]: 6.77
pIC50 [19]: 4.98

SMILES: CC(=O)c1c(C)c2cnc(Nc3ccc(N4CCNCC4)cn3)nc2n(C2CCCC2)c1=O [PALBOCICLIB]
pIC50 [1]: 4.97

Continued, values first:

pIC50 [1]: 4.51
pIC50 [2]: 6.28
SMILES: CCC(CO)Nc1ncc2cc(C(=O)N(C)C)n(C3CCCC3)c2n1 (centres undefined)

pIC50 [1]: 4.85
pIC50 [2]: 5.92
SMILES: O=C(Nc1ccccc1)c1cc2cnc(Nc3ccccc3)nc2n1C1CCCC1

pIC50 [1]: 4.52
pIC50 [2]: < 4.00
SMILES: CN(C)C(=O)c1cc2cnc(Nc3ccc(N4CCNCC4)cn3)nc2n1Cc1ccccc1

pIC50 [1]: 5.60
pIC50 [2]: 7.55
pIC50 [18]: 7.19
pIC50 [19]: 5.48
inhibition [30]: Active
inhibition [32]: Active
SMILES: Cc1ccccc1NC(=O)c1cc2cnc(Nc3ccc(N4CCNCC4)cn3)nc2n1C1CCCC1
